Data on three compounds can be found in paper PMC8960621, “Solution speciation and human serum protein binding of indium(III) complexes of 8-hydroxyquinoline, deferiprone and maltol” (Journal of Biological Inorganic Chemistry, 2022).

The target of data set [1] is T1, apo-transferrin (apoTf) (Homo sapiens, UniProt P02787).
T1 construct: purchased Sigma-Aldrich T2036
The note with it: similar conditions; cited from earlier work.

In data set [2] the target is T2, apoTf (Homo sapiens, UniProt P02787).
T2 construct: purchased Sigma-Aldrich T2036
As to the kind of experiment: apoTf fluorescence quenching. Type of data set: binding. Particulars: λEM = 330 nm. How it is done:
Fluorescence quenching is a convenient technique to study the binding of metal ions at the iron-binding sites of apoTf since it results in reduced fluorescence intensity of Tf. Batch samples containing 1 μM apoTf and various amounts of In(III) compounds were prepared. […] The partial (and not complete) quenching of apoTf can be explained by the presence of numerous Tyr (26) and Trp (8) residues in the protein among which only a few are affected by the binding of In(III) at the iron-binding sites. Upon addition of InQ3, the quenching curve is more stretched and aims to lower intensities (Fig. 4b). Interaction of the non-dissociated complex InQ3 with apoTf cannot be excluded, the latter proposed interaction is realized via intermolecular binding mode and more likely takes place on site(s) other than the iron-binding pockets (vide infra).
Fluorescence studies were implemented by a Fluoromax (Horiba Jobin Yvon) fluorometer in 1 cm quartz cells. Samples contained 1 μM HSA or (apo)Tf and various protein-to-metal complex (or InCl3) ratios (up to complex/HSA = 1:30) were used. […] Intrinsic fluorescence of complex InQ3 was also followed at λEX = 367 nm, and λEM = 450 – 650 nm. In this setup, the complex concentration was ca. 10 or 20 μM, and protein (HSA, (apo)Tf) concentration was varied between 0 and 130 μM, and residual fluorescence of the proteins were subtracted if it was necessary. […]

Data set [3] is described as follows: Interaction of tris-ligand complexes with low molecular mass serum components (phosphate, citrate, oxalate), UV-vis. Type of data set: physicochemical. Particulars: tenfold excess of the LMM ligands (phosphate, citrate, oxalate), pH 7.4. From the text:
As a first step, interaction of the tris-ligand In(III) complexes with various LMM blood serum components was investigated and compared to that of GaQ3 studied formerly in our research group. The LMM compounds are considered to be more mobile than the high molecular mass components (HMM) such as proteins, and generally their reaction is characterized by faster kinetics. The role of serum compounds might have importance on the distribution of the In(III) complexes since they may be responsible for (partial) displacement of the originally coordinated ligand and they can also form mixed-ligand complexes. The complexes of In(III) and Ga(III) formed with HQ (InQ3, GaQ3), deferiprone (InD3) and maltol (InM3) were prepared in an aqueous solution by mixing the respective ligand and the metal ion in 3:1 ratio. […] All the measurements in this work were performed at 25 °C as most of the stability constants used for the modeling calculations published in the literature were determined at this temperature. UV–vis spectra recorded for the tris-ligand complexes at 10 μM concentration (see Fig. S1a for InQ3) in this buffer show 94%, 90% and < 20% non-dissociated InQ3, InD3 and InM3, respectively, which corresponds well to the fractions obtained using the stability constants determined at 0.20 M KCl: 90% (InQ3), 86% (InD3) and 9% InM3 and 6% InM^2+. […]

Data set [4] has as its target T2, apoTf. As to the kind of experiment: Fluorescence lifetime (TCSPC) of InQ3 in the presence of apoTf. Type of data set: binding. Particulars: in the presence of 0.1 – 0.3 equiv. apoTf, after 1 min waiting time. As for the experimental part: Therefore, UV–vis and fluorescence emission spectra of InQ3 were recorded in the presence of increasing amounts of apoTf (Fig. 5a, b). After a short initial phase, the absorbance band of InQ3 is reduced gradually by the addition of the protein, while the development of the new band at lower wavelengths (at ca. 310 nm) refers to the liberation of HQ. Namely, there is a competition for In(III) ion between the ligand and the iron-binding sites of apoTf. Absorbance values depicted at 370 nm and 310 nm (Fig. 5c) saturate roughly to the corresponding values of the free ligand and outline a sigmoidal shape. Fluorescence intensity of the same sample set (Fig. 5b, d) was enhanced and moderately blue shifted (from λmax = 540 nm to 532 nm) until the addition of ca. 0.2 equiv. apoTf. […] Then, by the addition of more apoTf, intensities decreased and λmax shifted further to shorter wavelengths (527 nm). […] This is further supported by fluorescence lifetime measurements; where new lifetime components τ3 = 4.7 ± 0.2 ns and τ4 = 13.8 ± 0.4 ns appeared for InQ3 in the presence of 0.1 – 0.3 equiv. apoTf (after 1 min waiting time). […] Here, the sigmoid shape of the UV–vis absorbance was seen again (Fig. S5) and the shifted inflection point in comparison to the titration with apoTf underlines the lower In(III) binding capacity of Tf. […]

Structures are written as SMILES.

T2 sequence (P02787 20-698): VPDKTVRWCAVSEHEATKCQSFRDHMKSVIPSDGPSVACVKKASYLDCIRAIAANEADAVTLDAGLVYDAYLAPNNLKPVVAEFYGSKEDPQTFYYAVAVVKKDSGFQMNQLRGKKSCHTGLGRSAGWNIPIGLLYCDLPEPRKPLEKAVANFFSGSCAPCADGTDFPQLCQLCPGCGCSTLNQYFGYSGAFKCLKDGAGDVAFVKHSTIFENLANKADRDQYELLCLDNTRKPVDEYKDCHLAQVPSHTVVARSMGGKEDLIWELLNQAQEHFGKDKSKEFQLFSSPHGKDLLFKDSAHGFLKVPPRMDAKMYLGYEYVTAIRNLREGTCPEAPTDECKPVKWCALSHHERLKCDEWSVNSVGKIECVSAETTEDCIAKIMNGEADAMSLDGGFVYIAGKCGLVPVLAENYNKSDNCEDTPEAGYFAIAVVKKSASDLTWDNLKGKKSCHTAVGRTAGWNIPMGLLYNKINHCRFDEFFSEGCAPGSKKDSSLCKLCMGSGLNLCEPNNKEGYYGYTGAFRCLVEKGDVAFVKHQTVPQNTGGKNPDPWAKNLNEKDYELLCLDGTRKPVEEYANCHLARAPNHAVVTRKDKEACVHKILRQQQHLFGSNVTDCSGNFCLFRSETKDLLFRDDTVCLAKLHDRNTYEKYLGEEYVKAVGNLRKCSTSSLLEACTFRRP
T1 sequence (P02787 20-698): as above

Regarding `[Ga+3].[O-]c1cccc2cccnc12.[O-]c1cccc2cccnc12.[O-]c1cccc2cccnc12` [GaQ3, Tris(8-Quinolinolato)gallium(III), reference compound], the “time of interaction with apoTf” value in data set [1] is reported as not above 1 h.

For `Cc1c([O-])c(=O)ccn1C.Cc1c([O-])c(=O)ccn1C.Cc1c([O-])c(=O)ccn1C.[In+3]` [InD3], in data set [2] (1 μM apoTf, λEX = 280 nm, pH 7.40), the “apoTf emission stabilized at % of the initial intensity” value was “ca. 83%”. In data set [2], the “breakpoint of the quenching curve, complex-to-Tf ratio” value was “ca. 2”.

In the case of `[In+3].[O-]c1cccc2cccnc12.[O-]c1cccc2cccnc12.[O-]c1cccc2cccnc12` [InQ3, Tris(8-Quinolinolato)indium(III)], the complex remained entry in data set [3] is on record as “ca. 34%”. In data set [4], the τ3 is 4.7 ± 0.2 ns and the τ4 is listed as 13.8 ± 0.4 ns.
